{
  "source": "patent US20230226198A1",
  "about": "“Artemisinin Derivatives” (DA ZEN THERANOSTICS, INC., priority 2019, published 2023)",
  "key": {"BxPC3 cells": {"system": "BxPC3 cells", "test": "MTT cell viability / IC50 assay, BxPC3", "format": "cell-based", "settings": "Homo sapiens, BXPC-3; BxPC3, 48 h", "description": "Cell culture: In the following examples, unless otherwise specified, all cell lines are purchased from American Type Culture Collection and cultured in American Type Culture Collection (ATCC)-recommended media, with fetal bovine serum (FBS) to a final concentration of 10% and 1× penicillin/streptomycin at 37° C. with 5% CO2 in a cell culture incubator, unless otherwise specified. Unless otherwise specified, culture is 2D. Where culture is 3D, low attachment plates are used, with the same media. C4-2B (ATCC® CRL-3315™, human prostate cancer cells of epithelial morphology) parental cell line and drug-resistant cells derived therefrom) are cultured in RPMI-1640 with 10% FBS. MDVR cells (an Enzalutamide-resistant variety of C4-2B prostate cancer cells formed as described below) are cultured as indicated for the parental C4-2B cells. Caki-1 cells (human clear cell renal cell carcinoma cells) are cultured in ATCC-formulated McCoy's 5a Medium Modified (ATCC Catalog No. 30-2007) with 10% FBS. […]\nEach of the cell lines is treated either with a THAD (e.g. DZ-DHA-ether, MI-148-bis-DHA), or for comparison, with the DHA mono-ester “DZ-DHA”; alternatively/additionally, DZ1 and/or unconjugated DHA may serve as comparants. […] The absorbance density of the supernatant is read on a 96-well microplate reader at wavelength 595 nm. […]"}, "C4-2B MDVR cells": {"system": "C4-2B MDVR cells", "test": "Seahorse XF mitochondrial function (OCR/ECAR)", "format": "cell-based, human", "settings": "5 uM", "description": "Example 5 C: To determine mitochondrial function of cancer cells (here C4-2B MDVR), the cells are treated with vehicle, DZ (5 uM), DHA (5 uM), and DZ-003 (5 uM) over 12 hours, and the oxygen consumption rate (OCR) from respiration and extracellular acidification rate (ECAR) from glycolysis of the live cells is determined in a metabolic chamber in a 24-well plate format using a Seahorse XF analyzer (Seahorse XFe24, Agilent, Calif.). Reagents (drugs/controls) are added to the wells just before start of the recording at time 0, and the effect of the drugs on the basal mitochondrial function is recorded by the analyzer for about 12 hours (720 minutes). All reagents used are Agilent reagents. Cells are seeded and cultured in Seahorse XF RPMI Medium, pH 7.4. The seeding rate is 8×10^5 for the cells to reach about 90% confluency within about 24 hours when the analysis is started. The protocol is essentially performed as per the standard protocol of the manufacturer, removing the medium, washing the cells once with XF Real-Time ATP Rate Assay Medium, then starting the measurement as per the instrument's pre-programming and subsequent real-time measurements of OCAR/ECAR. Preliminary experiments indicate that the THAD as described herein may have an increased effect compared to DZ3a."}, "C4-2 MDVR cells": {"system": "C4-2 MDVR cells", "test": "JC-1 staining, mitochondrial membrane potential by flow cytometry", "format": "cell-based, human", "settings": "5 uM, 16 h", "description": "Example 5D: JC-1 staining and measuring JC-1 fluorescence is performed by flow cytometry to detect the ratio of green and red fluorescence. C4-2 MDVR cells are treated with vehicle (negative control), DHA (5 uM), and DZ-003 (5 uM) for 16 h, followed by JC-1 staining (2 uM) at 37° C. for 30 min, to determine the mitochondrial membrane potential by flow cytometry where JC-1 remains as a monomer in the cytosol that emits green fluorescence as an indication of depolarized membrane potential, and JC-1 forms aggregates in intact mitochondria that emits red fluorescence. […] Preliminary experiments indicate that the THAD as described herein may provide a similar or increased effect."}, "MDVR cells": {"system": "MDVR cells", "test": "C11-BODIPY (lipid peroxidation) and MitoSox (mitochondrial ROS) flow cytometry", "format": "cell-based, human", "settings": "8 h", "description": "Example 5F: Cancer cells (here MDVR) are treated with DZ1, DHA and DZ-003 for 8 h, followed by C11-BODIPY staining for 30 min at 37° C. (lipid peroxidation) or MitoSox staining for 10 min at 37° C. […] Flow cytometry analysis is performed as described in example 5E above. […] Preliminary experiments indicate that the THAD as described herein may provide a similar or increased effects."}},
  "data": [
    {"compound": "C[C@@H]1CC[C@H]2[C@@H](C)C(OC(=O)CCCCCN3/C(=C/C=C4\\CCCC(/C=C/C5=[N+](CCCCS(=O)(=O)[O-])c6ccccc6C5(C)C)=C4Cl)C(C)(C)c4ccccc43)O[C@@H]3OC4(C)CC[C@@H]1[C@]32OO4", "note": "(stereo in doubt) [DZ3a]", "values": [
      {"measurement": "IC50", "setting": "BxPC3 cells", "result": 9.8, "unit": "µM"},
      {"measurement": "time at which lowering of OCR starts", "setting": "C4-2B MDVR cells", "result": "≤ 250", "unit": "min"},
      {"measurement": "time until which OCR continues to lower before sustained lowered OCR", "setting": "C4-2B MDVR cells", "result": "about 500 minutes"},
      {"measurement": "lowering of OCR (in words)", "setting": "C4-2B MDVR cells; over 12 hours", "result": "can greatly lower the mitochondrial oxygen consumption rate"},
      {"measurement": "mitochondrial oxygen consumption rate (OCR) after treatment", "setting": "C4-2B MDVR cells; over 12 hours, from about 700-800 pmol/min", "result": "less than 300 pmol/min"},
      {"measurement": "mitochondrial membrane potential (JC-1 fluorescence)", "setting": "C4-2 MDVR cells", "result": "induces depolarization of mitochondrial membrane potential"},
      {"measurement": "lipid peroxidation (C11-BODIPY fluorescence)", "setting": "MDVR cells", "result": "induces lipid peroxidation"}
    ]},
    {"compound": "C[C@H]1[C@@H](O)O[C@@H]2O[C@@]3(C)CC[C@H]4[C@H](C)CC[C@@H]1[C@@]24OO3", "note": "[DHA, dihydroartemisinin]", "values": [
      {"measurement": "IC50", "setting": "BxPC3 cells", "result": 50.7, "unit": "µM"}
    ]}
  ]
}
